Laboratory results taken from ChEMBL document CHEMBL1158318, “Two 5-HT 1A Receptor-Interactive Tryptamine Derivatives from the Unripe Fruit of Evodia rutaecarpa” (J Nat Prod, 1997).

Target: T1, 5-hydroxytryptamine receptor 1A (Homo sapiens, UniProt P08908)
T1 sequence (P08908 whole entry): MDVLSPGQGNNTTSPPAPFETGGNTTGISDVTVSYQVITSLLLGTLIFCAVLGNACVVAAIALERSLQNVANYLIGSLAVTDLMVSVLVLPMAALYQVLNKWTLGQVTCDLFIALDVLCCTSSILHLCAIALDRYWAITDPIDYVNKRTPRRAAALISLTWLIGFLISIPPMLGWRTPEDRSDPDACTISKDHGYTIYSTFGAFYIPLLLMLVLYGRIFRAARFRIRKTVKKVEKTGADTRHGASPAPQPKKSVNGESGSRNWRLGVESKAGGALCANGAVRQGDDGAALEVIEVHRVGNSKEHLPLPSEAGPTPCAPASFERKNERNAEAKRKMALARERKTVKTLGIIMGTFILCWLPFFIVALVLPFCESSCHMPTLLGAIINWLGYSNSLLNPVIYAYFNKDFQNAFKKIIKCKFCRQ
Assay: Displacement of [3H]8-OH-DPAT from 5HT1A receptor by vacuum filtration

Row | Ki | Compound
1 | > 100 µM | COc1cc(-c2oc3cc(O)cc(O)c3c(=O)c2O[C@@H]2O[C@H](CO)[C@H](O)[C@H](O)[C@H]2O)ccc1O
2 | 36 µM | C[n+]1c2n(c(=O)c3ccccc31)CCc1c-2[nH]c2ccccc12 [DEHYDROEVODIAMINE]
3 | > 100 µM | CN1c2ccccc2C(=O)N2CCc3c([nH]c4ccccc34)[C@H]21 [EVODIAMINE]
4 | > 100 µM | O=c1c(O[C@@H]2O[C@H](CO)[C@H](O)[C@H](O)[C@H]2O)c(-c2ccc(O)c(O)c2)oc2cc(O)cc(O)c12 [HYPEROSIDE]
5 | > 100 µM | CC1(C)O[C@H]2CC(=O)OC[C@]23[C@H]2CC[C@@]4(C)[C@H](c5ccoc5)OC(=O)[C@H]5O[C@]54[C@]2(C)C(=O)C[C@@H]13 [LIMONIN]
6 | 32 µM | CNc1ccccc1C(=O)N1CCc2c([nH]c3ccccc23)C1=O [RHETSININE]
7 | > 100 µM | O=c1c2ccccc2nc2n1CCc1c-2[nH]c2ccccc12 [RUTAECARPINE]

Row | Compound | Ki
8 | CNCC(O)c1ccc(O)cc1 (stereo not drawn) [OXEDRINE] | 63 µM
